# Experimental data from patent publication US20100099614A1, “Antimicrobial Peptides and Methods of Use” (priority 2008, published 2010).
# Legend:
# [1] = Peptide hydrophobicity by RP-HPLC retention; format: physicochemical; conditions: 80° C., polar face substitution
# Method: Peptide Synthesis and Purification—Syntheses of the peptides were carried out by solid-phase peptide synthesis using t-butyloxycarbonyl chemistry and MBHA (4-methylbenzhydrylamine) resin (0.97 mmol/g), followed by cleavage of the peptide from the resin as described previously (117-119). However, it is understood in the art that there are other suitable instruments and methods for automated or manual peptide synthesis that could be employed to produce the peptides described herein. Peptide purification was performed by reversed-phase high-performance liquid chromatography (RP-HPLC) on a Zorbax 300 SB-C8 column (250×9.4 mm I.D.; 6.5 μm particle size, 300 Å pore size; Agilent Technologies, Little Falls, Del.) with a linear AB gradient (0.1% acetonitrile/min) at a flow rate of 2 mL/min, where eluent A was 0.2% aqueous trifluoroacetic acid (TFA), pH 2, and eluent B was 0.2% TFA in acetonitrile, where the shallow 0.1% acetonitrile/min gradient started 12% below the acetonitrile concentration required to elute the peptide on injection of analytical sample using a gradient of 1% acetonitrile/min (113). The purity of the peptides was verified by analytical RP-HPLC as described below and further characterized by mass spectrometry and amino acid analysis. Crude and purified peptides were analyzed on an Agilent 1100 series liquid chromatograph. Runs were performed on a Zorbax 300 SB-C8 column (150×2.1 mm I.D.; 5 μm particle size, 300 Å pore size) from Agilent Technologies using a linear AB gradient (1% acetonitrile/min) and a flow rate of 0.25 mL/min, where eluent A was 0.2% aqueous TFA, pH 2, and eluent B was 0.2% TFA in acetonitrile.
# Analytical RP-HPLC of Peptides—Peptides were analyzed on an Agilent 1100 series liquid chromatograph (Little Falls, Del.). Runs were performed on a Zorbax 300 SB-C8 column (150×2.1 mm I.D.; 5 μm particle size, 300 Å pore size) from Agilent Technologies using linear AB gradient (1% acetonitrile/min) and a flow rate of 0.25 ml/min, where solvent A was 0.05% aqueous TFA, pH 2 and solvent B was 0.05% TFA in acetonitrile. Temperature profiling analyses were performed in 3° C. increments, from 5° C. to 80° C.
# [2] = Helical structure by circular dichroism spectroscopy; format: physicochemical
# Method: The mean residue molar ellipticities of peptides were determined by circular dichroism (CD) spectroscopy, using a Jasco J-810 spectropolarimeter (Easton, Md.) at 5° C. under benign (non-denaturing) conditions (50 mM NaH2PO4/Na2HPO4/100 mM KCl, pH 7.0), hereafter referred to as benign buffer, as well as in the presence of an α-helix inducing solvent, 2,2,2-trifluoroethanol, TFE, (50 mM NaH2PO4/Na2HPO4/[…], pH 7.0 buffer/50% TFE). A 10-fold dilution of an approximately […] stock solution of the peptide analogs was loaded into a 0.1 cm quartz cell and its ellipticity scanned from 195 to 250 nm. The values of molar ellipticities of the peptide analogs at a wavelength of 222 nm were used to estimate the relative α-helicity of the peptides.
# [3] = CD temperature denaturation study; format: physicochemical; conditions: 50% TFE
# Method: CD Temperature Denaturation Study of Peptide V681—The native peptide V681 was dissolved in 0.05% aqueous TFA containing 50% TFE, pH 2, loaded into a 0.02 cm fused silica cell and peptide ellipticity scanned from 190 to 250 nm at temperatures of 5, 15, 25, 35, 45, 55, 65 and 80° C. The spectra at different temperatures were used to mimic the alteration of peptide conformation during temperature profiling analysis in RP-HPLC. The ratio of the molar ellipticity at a particular temperature (t) relative to that at 5° C. ([θ]t−[θ]u)/([θ]5−[θ]u) was calculated and plotted against temperature in order to obtain the thermal melting profiles, where [θ]5 and [θ]u represent the molar ellipticity values for the fully folded and fully unfolded species, respectively. […] was determined in the presence of 8M urea with a value of 1500 deg·cm^2·dmol^−1 to represent a totally random coil state (31). The melting temperature (Tm) was calculated as the temperature at which the α-helix was 50% denatured (([θ]t−[θ]u)/([θ]5−θ[θ]u)=0.5) and the values were taken as a measure of α-helix stability.
# Gram-positive bacteria = conditions: gram-positive bacteria
substance,measurement,setting,value
"Ac-KWKSFLKTFKSAVKTVLHTALKAISS-NH2 [V681, reference compound]",change in hydrophobicity (RP-HPLC retention) relative to PVL,[1],-0.35 min
same,[θ]222 in benign conditions,"[2]; 100 mM KCl, 50 mM aq. PO4, pH 7","−12,900"
same,[θ]222 in 50% TFE,[2]; 50% TFE,"−27,300"
same,α-helical content,[2]; 50% TFE,94%
same,α-helical content,[2]; benign conditions,45%
same,transition temperature Tm (50% of α-helical structure denatured),[3],79.3 °C
same,geometric mean MIC,Gram-positive bacteria,6.3 µg/mL
